# Where two headings read alike, the source gives them in different places.
# Legend:
# [1] = Bodyweight of broilers fed berberine-supplemented diet; format: in vivo, Ross 308 broiler chickens; details: 21 days post-hatch, n = 12
# Excerpt: The study was undertaken following the guidelines of the ethics committee of the Faculty of Veterinary Medicine and Bioscience Engineering, Ghent University, in accordance with the EU Directive 2010/63/EU. […] They were allotted into 4 groups, with three replicate pens per group each housing 8 chickens. The animals were not vaccinated. Water and commercial starter feed (day 1-12, FARM 1 Mash, Country's Best, […], Belgium) or grower (day 13-21, FARM 2 mash, Country's Best, […], Belgium) were provided ad libitum. […] At day 21, 4 birds per pen were weighted then euthanized by sodium pentobarbital injection for sampling. […] Additionally, ileal and caecal content samples were collected and stored at -20°C for berberine and berberine-derived metabolite quantification.
# [2] = rats, 2021, cited from earlier work; for Total recovery in feces: ref Ma et al., 2013, Feng et al.
# [3] = system: Blautia hydrogenotrophica (DSM 10507); details: DSM 10507, chicken, 10 µg/mL, pH 6
# Procedure: (§1) Six strains were tested for their ability to convert berberine into berberine-demethylated metabolites. […] Strains were sub-cultured overnight in M2GSC medium pH 6. The next day, caecal content from a 3-week-old broiler chicken was sampled in anaerobic conditions and 1:1,000 diluted in M2GSC medium pH 6 containing 10 μg/mL berberine. Caecal mixtures were enriched with 1:100 diluted overnight cultures of single bacteria, or with M2GSC (control), and incubated in a 24-well plate, for 48 h. […] Samples were collected and processed as described before. Each bacterial strain was tested in triplicate at 37°C–40°C under anaerobic conditions.
# (§2) The UPLC instrument consisted of an Acquity H-Class Quaternary Solvent Manager and an Acquity FTN Sample Manager (Waters, Berchem, Belgium). For chromatographic separation, an Acquity UPLC® HSS T3 column (1.8 µm, 100 mm × 2.1 mm i.d.) was used, protected by a precolumn of the same type (VanGuardTM, 5 mm × 2.1 mm i.d.), both from Waters. […] The column temperature was maintained at 25°C. The autosampler temperature was set at 10°C. The UPLC effluent was sent from 1.2 min to 9.5 min by use of a divert valve to a Xevo TQ-S® triple quadrupole mass spectrometer from Water, equipped with an ESI ion source operating in the positive ionization mode from. The UPLC-MS/MS analysis was run under control of MassLynx software (v4.1), which was used for subsequent data processing as well. For the injection of 1/5 diluted intestinal content samples (see section Preparation of intestinal content samples (ileum and caecum)), the divert valve was used in addition from 7.1 min to 8.4 min to deviate the high amount of berberine and associated IS berberine-d6 eluting in that time window from the UPLC column directly to the waste, rather than to the MS detector to avoid oversaturation of the instrument, influencing subsequent sample extract injections at well. Operating conditions for the ESI source used in the positive ionization mode were optimized by direct infusion of all individual components in combination with the mobile phase at 50% A/50% B delivered at a flow rate of 0.3 mL/min. The following tune parameters were used for detection of all components: capillary voltage, 3 kV, cone voltage, 10 V, source offset, 50 V, source temperature, 150°C, desolvation temperature, 500°C, desolvation gas flow, 800 L/h, cone gas flow, 150 L/h, collision gas flow, 0.2 mL/min, ion energy 1 and 2, 0.5, LM 1 and LM 2 resolution, 3, HM 1 and HM 2 resolution, 15. Components were detected in MS/MS mode using component specific MRM (Multiple Reaction Monitoring) transitions (Supplementary Table S1). Since a commercial standard of thalifendine was not available, MS/MS detection parameters and calibration of berberrubine were used for the detection and quantification of thalifendine, which is a reasonable approach, since both compounds are isomers. No commercial reference standards were available for phase II metabolites, therefore “calculated” MRM transitions were defined as follows: [M + -Gluc] > M+ for glucuronide forms and [M + -SO3] > M+ for sulfate forms, where the loss of glucuronic acid or sulfate corresponded to a mass shift of 176 Da or 80 Da respectively. Phase II metabolites were quantified relatively using the berberine calibration curve ([Wang et al., 2017a]; [Kwon et al., 2020]).
# [4] = system: B. coccoides (DSM 935); details: DSM 935, chicken, 10 µg/mL, pH 6
# Procedure: as §1, §2
# [5] = system: Blautia hansenii (DSM 20583); details: DSM 20583, chicken, 10 µg/mL, pH 6
# Procedure: as §1, §2
# [6] = system: Blautia luti (DSM 14534); details: DSM 14534, chicken, 10 µg/mL, pH 6
# Procedure: as §1, §2
# [7] = system: Eubacterium limosum (LMG 28910); details: LMG 28910, chicken, 10 µg/mL, pH 6
# Procedure: as §1, §2
# [8] = system: Anaerostipes butyraticus (35–7); details: 35-7, chicken, 10 µg/mL, pH 6
# Procedure: as §1, §2
# [9] = oral administration of berberine, ref Feng et al.
"Log2(fold change) of metabolite response at 48 h, culture with bacteria over control (berberine-medium + microbiota) [3]","Log2(fold change) of metabolite response at 48 h, culture with bacteria over control (berberine-medium + microbiota) [4]","Log2(fold change) of metabolite response at 48 h, culture with bacteria over control (berberine-medium + microbiota) [5]","Log2(fold change) of metabolite response at 48 h, culture with bacteria over control (berberine-medium + microbiota) [6]","Log2(fold change) of metabolite response at 48 h, culture with bacteria over control (berberine-medium + microbiota) [7]","Log2(fold change) of metabolite response at 48 h, culture with bacteria over control (berberine-medium + microbiota) [8]",Structure (SMILES),Bodyweight ([1]; 0.1 g berberine/kg feed),Bodyweight ([1]; 0.5 g berberine/kg feed),Bodyweight ([1]; 1 g berberine/kg feed),Total recovery in feces ([2]; oral berberine 48.2 mg/kg),Total recovery in feces ([2]; oral berberine 200 mg/kg),"Excretion in bile [2, 9]","Excretion in feces [2, 9]","Excretion in urine [2, 9]"
–,–,–,–,–,–,"COc1ccc2cc3[n+](cc2c1OC)CCc1cc2c(cc1-3)OCO2 [Berberine, Berberine chloride]",655 ± 76 g,703 ± 115 g,671 ± 55 g,8.4%,19.05%,–,–,–
-0.10,-1.64,-0.15,-1.71,-0.40,0.03,"COc1ccc2cc3[n+](cc2c1O)CCc1cc2c(cc1-3)OCO2 [Berberrubine, berberrubine chloride]",–,–,–,18.6%,1.14%,2.6%,18.6%,1.2%
0.03,-0.23,-0.06,-0.36,0.11,-0.05,"COc1cc2c(cc1O)CC[n+]1cc3c(OC)c(OC)ccc3cc1-2 [Jatrorrhizine, Jatrorrhizine chloride]",–,–,–,–,–,–,–,–
